The values that follow come from paper PMC7553777, “Structural basis for the reaction cycle of DASS dicarboxylate transporters” (eLife, 2020).

The target in assay [1] is T1, LaINDY (Lactobacillus acidophilus, UniProt Q5FKK5).
T1 construct: gene LBA0912
The assay is described as follows: thermostability, SEC peak height after […] h at […] °C. The assay is classed as binding.

Assay [2] deals with LaINDY, succinate/dicarboxylate transporter from Lactobacillus acidophilus (Lactobacillus acidophilus). The experiment in a line: SEC-MALS; Shodex KW803 column, buffer with 0.05% DDM, three angle static light scattering, refractive index and UV detectors; detergent-purified LaINDY. For orientation: SEC sorts molecules by how far they enter the pores of the column.
The target is the same in assay [3]. The experiment in a line: cryo-EM structure.
For assay [4] the target is unchanged. The experiment in a line: crystal structure.
For assay [5], the target named is T1, LaINDY. The experiment in a line: whole-cell radiolabelled uptake and exchange in E. coli BL21(DE3). The assay is classed as cell-based. The following applies: 1 μM 3H-succinate, labelled compound, pH 7.5, 30 °C, 10 mM NaCl.

Like-named read-outs stand apart in the source and are kept apart here.

T1 sequence (Q5FKK5 1-488 limits assumed): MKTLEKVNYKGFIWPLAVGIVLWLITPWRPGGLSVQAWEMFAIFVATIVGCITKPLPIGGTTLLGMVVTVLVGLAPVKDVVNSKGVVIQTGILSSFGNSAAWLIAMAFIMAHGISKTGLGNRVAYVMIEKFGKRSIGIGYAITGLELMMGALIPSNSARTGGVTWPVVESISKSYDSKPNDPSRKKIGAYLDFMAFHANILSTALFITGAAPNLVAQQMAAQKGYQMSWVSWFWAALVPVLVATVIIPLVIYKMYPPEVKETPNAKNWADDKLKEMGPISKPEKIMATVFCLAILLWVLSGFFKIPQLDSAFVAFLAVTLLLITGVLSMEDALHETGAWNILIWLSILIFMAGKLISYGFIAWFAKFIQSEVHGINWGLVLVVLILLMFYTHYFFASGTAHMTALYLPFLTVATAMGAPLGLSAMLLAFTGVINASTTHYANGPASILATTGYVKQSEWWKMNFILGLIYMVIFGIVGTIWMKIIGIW

As to `O=C(O)CC(O)C(=O)O` (racemic) [malate], the “thermostability, SEC peak height after 2 h at 42 °C” value on LaINDY [1] was “Following identification of malate and αKG as stabilizers”. In general, stoichiometry N refers to the number of molecules, sites or subunits per partner or assembly. As for “LaINDY, succinate/dicarboxylate transporter from Lactobacillus acidophilus (natural protein)”, the stoichiometry N in assay [2], in assay [3] and in assay [4] was 2 each time.

`O=C(O)CCC(=O)C(=O)O` [αKG]: the “thermostability, SEC peak height after 2 h at 42 °C” value at LaINDY [1] (pH 8.0, 150 mM NaCl, 0.15% DM, 100 mM compound as printed) is “Following identification of malate and αKG as stabilizers”.

Consider `O=C(O)CCC(=O)O` [succinate], for which the “whole-cell radiolabelled uptake and exchange in E. coli BL21(DE3)” value on LaINDY [5] is on record as “E. coli transformed with LaINDY accumulated radioactive succinate from an external solution”.
